Here are results for 13 compounds from patent US12528767B2, “HDAC6 inhibitors and uses thereof” (Eikonizo Therapeutics, Inc., priority 2019, dated 2026).

Each structure is given as a SMILES string. Read-outs that look alike come from different tables or passages of the source. A value given as a limit tells only on which side of the number the result lay.

Data set [1] is described as follows: In vivo assessment of brain penetration in mice (IV 1 mg/kg, plasma and brain levels). The following applies: mouse, BL/6 mice; for Kp at 15 min / Kp at 60 min: brain and plasma, brain:plasma; for Kp at 15 min: read-out: Mouse B:P at 15 min; for Kp at 60 min: read-out: Mouse B:P at 60 min.
The target of data set [2] is T1, Full length Human HDAC6 (Homo sapiens, UniProt Q9UBN7).
T1 sequence (Q9UBN7 1-1215): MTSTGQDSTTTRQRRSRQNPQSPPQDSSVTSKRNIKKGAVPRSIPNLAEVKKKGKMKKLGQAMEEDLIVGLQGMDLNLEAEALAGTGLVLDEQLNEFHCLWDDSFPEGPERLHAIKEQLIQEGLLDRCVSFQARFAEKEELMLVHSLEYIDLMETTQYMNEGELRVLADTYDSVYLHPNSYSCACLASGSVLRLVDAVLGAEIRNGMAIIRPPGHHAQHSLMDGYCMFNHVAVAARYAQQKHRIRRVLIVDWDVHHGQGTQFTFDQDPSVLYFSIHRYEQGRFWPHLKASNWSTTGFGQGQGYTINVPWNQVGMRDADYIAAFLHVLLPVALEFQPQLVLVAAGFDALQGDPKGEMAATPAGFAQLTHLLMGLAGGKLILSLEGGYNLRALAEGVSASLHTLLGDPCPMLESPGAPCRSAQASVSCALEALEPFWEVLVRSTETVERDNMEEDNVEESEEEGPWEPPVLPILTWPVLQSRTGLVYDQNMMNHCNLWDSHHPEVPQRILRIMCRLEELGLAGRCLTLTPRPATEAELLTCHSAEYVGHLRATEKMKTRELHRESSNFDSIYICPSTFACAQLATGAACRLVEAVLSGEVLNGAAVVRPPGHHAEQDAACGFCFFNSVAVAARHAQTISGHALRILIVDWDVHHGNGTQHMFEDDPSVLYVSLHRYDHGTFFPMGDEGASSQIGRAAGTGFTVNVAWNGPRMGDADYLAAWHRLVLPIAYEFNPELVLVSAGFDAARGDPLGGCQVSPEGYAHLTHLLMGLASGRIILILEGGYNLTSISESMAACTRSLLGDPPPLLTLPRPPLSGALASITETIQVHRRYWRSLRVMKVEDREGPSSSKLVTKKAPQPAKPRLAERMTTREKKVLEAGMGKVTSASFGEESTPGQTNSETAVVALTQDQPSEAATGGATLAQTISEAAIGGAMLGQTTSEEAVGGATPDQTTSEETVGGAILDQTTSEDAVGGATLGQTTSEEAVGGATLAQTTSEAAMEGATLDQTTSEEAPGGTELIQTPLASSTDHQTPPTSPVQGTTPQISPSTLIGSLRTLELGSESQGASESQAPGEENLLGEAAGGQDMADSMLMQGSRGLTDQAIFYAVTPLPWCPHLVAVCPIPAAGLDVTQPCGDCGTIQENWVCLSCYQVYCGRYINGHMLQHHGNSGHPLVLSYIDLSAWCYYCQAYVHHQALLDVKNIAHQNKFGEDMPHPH
The following applies: for Selectivity (6 v 8) (fold): ratio of HDAC8 IC50/HDAC6 IC50.

Data set [3] addresses T2, Full length Human HDAC8 (Homo sapiens, UniProt Q9BY41).
T2 sequence (Q9BY41 1-377): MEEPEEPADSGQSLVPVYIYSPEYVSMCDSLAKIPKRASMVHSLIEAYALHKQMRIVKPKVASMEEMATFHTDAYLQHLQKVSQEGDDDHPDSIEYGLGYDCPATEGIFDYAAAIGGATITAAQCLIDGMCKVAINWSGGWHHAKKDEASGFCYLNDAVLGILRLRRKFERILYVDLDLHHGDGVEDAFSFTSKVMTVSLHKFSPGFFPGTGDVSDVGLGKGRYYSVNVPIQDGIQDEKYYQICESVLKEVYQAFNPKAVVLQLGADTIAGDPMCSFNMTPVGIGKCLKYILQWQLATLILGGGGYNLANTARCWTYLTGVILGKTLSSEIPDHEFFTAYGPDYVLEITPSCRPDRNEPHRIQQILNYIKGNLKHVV

Data set [4] addresses T3, Full length Human HDAC10 (Homo sapiens, UniProt Q969S8).
T3 sequence (Q969S8 1-669): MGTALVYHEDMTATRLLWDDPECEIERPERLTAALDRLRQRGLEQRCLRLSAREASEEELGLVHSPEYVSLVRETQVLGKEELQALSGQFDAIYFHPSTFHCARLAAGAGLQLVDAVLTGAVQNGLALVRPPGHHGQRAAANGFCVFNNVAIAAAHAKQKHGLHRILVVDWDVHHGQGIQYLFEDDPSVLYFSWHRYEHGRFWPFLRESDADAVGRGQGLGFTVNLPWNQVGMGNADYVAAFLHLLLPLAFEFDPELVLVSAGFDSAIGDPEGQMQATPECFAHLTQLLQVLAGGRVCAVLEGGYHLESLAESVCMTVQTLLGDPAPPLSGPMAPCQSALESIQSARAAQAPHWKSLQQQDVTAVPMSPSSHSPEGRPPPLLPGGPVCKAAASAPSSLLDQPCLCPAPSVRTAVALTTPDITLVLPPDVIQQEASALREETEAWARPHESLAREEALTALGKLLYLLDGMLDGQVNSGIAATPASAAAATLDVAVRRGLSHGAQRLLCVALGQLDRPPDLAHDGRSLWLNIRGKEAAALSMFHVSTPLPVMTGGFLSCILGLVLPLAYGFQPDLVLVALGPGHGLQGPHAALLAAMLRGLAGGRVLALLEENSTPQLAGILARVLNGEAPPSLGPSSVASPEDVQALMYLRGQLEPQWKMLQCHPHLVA

Data set [5] has as its target T4, Human HDAC7 aa 518-end (Homo sapiens, UniProt Q8WUI4).
T4 sequence (Q8WUI4 518-952 limits assumed): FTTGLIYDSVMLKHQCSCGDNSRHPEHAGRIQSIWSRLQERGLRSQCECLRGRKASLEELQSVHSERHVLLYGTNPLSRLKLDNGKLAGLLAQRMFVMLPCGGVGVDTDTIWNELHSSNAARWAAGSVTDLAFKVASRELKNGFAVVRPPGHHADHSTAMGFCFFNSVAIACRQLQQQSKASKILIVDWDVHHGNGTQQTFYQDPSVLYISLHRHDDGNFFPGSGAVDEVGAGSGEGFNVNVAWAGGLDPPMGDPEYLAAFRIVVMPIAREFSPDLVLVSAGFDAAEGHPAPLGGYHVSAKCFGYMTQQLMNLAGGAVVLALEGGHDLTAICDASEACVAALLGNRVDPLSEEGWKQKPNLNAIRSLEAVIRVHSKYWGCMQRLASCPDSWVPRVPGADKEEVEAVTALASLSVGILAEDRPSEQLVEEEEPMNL

[6] abbreviates: brain, read-out: Mouse Brain Conc (μM) at 15 min.
The mark [7] stands for this setting: brain, read-out: Mouse Brain Conc (μM) at 60 min.
Where [8] appears, read: plasma, read-out: Mouse Plasma Conc (μM) at 15 min.
The mark [9] stands for this setting: plasma, read-out: Mouse Plasma Conc (μM) at 60 min.
[10] abbreviates: read-out: In vitro enzymatic IC50, HDAC Paralog 6, Table 2.
The mark [11] stands for this setting: read-out: In vitro enzymatic IC50, HDAC Paralog 8, Table 2.

As for `O=C(NO)c1cc(F)c2c(c1)CN(CC13C4C5C6C4C1C6C53)CC2` (stereo not drawn) [compound 116, 2-(cuban-1-ylmethyl)-5-fluoro-N-hydroxy-1,2,3,4-tetrahydroisoquinoline-7-carboxamide], the concentration at 15 min in data set [1] (setting [6]) amounted to 0.39 µM; in data set [1] (setting [8]) it was 0.25 µM. In addition, the concentration at 60 min came to 0 µM in data set [1] (setting [7]) and 0.02 µM in data set [1] (setting [9]). In data set [1], the Kp at 15 min turned out to be 1.57. For the same compound, the Kp at 60 min in data set [1] is 0. The values for the IC50 in data set [2] and in data set [3] were 0.001 to 0.1 µM and 0.1 to 1 µM, respectively. Besides, the “Selectivity (6 v 8) (fold)” value is reported as 11 fold in data set [2] (Table 1, number) and “III (III: >10-100)” in data set [2] (Table 1, range class).

As for `O=C(NO)c1ccc2c(c1)C[C@@H]1CCCN1C2` (single isomer, unassigned) [compound 121], the concentration at 15 min came to 0.19 µM in data set [1] (setting [6]) and 0.96 µM in data set [1] (setting [8]). The figures for the concentration at 60 min in data set [1] (setting [7]) and in data set [1] (setting [9]) were 0.06 µM and 0.01 µM, respectively. In addition, in data set [1], the Kp at 15 min is 0.19. Further, the Kp at 60 min in data set [1] is 5.89. The “Selectivity (6 v 8) (fold)” value in data set [2] (Table 1, number) is 80.9 fold; in data set [2] (Table 1, range class) it was “III (III: >10-100)”.

Consider `O=C(NO)c1ccc(CN2C3CCC2COC3)c(F)c1` [compound 59], for which the half-inhibitory concentration (IC50) fell in the range of 0.001 to 0.1 µM in data set [2]; 0.001 to 0.1 µM in data set [2] (setting [10]); 10 to 100 µM in data set [4]; 1 to 10 µM in data set [5]; 0.1 to 1 µM in data set [3]; 0.1 to 1 µM in data set [3] (setting [11]).

With `O=C(NO)c1cc(F)c2c(c1)CCN(C1CC3(CCC3)C1)C2` [compound 112], the concentration for half-maximal inhibition (IC50) is 0.001 to 0.1 µM in data set [2]; 0.001 to 0.1 µM in data set [2] (setting [10]); above 100 µM in data set [4]; 10 to 100 µM in data set [5]; above 100 µM in data set [3]; above 100 µM in data set [3] (setting [11]). Also, the “Selectivity (6 v 8) (fold)” value is reported as above 12414.6 fold in data set [2] (Table 1, number) and “V (V: >1000)” in data set [2] (Table 1, range class).

For the compound `CC1(C)C[C@H]2Cc3c(F)cc(C(=O)NO)cc3CN2C1` (single isomer, unassigned) [compound 128], the half-inhibitory concentration (IC50) is 0.1 to 1 µM in data set [2], above 100 µM in data set [4], 1 to 10 µM in data set [5] and 1 to 10 µM in data set [3].

With `O=C(NO)c1cc(F)c2c(c1)CCN(CC1COC1)C2` [compound 27], the concentration for half-maximal inhibition (IC50) in data set [2] was 0.001 to 0.1 µM; in data set [2] (setting [10]), 0.001 to 0.1 µM; in data set [4], above 100 µM; in data set [5], 1 to 10 µM; in data set [3], 10 to 100 µM; in data set [3] (setting [11]), 10 to 100 µM.

For `C[C@H]1CC[C@H]2c3c(F)cc(C(=O)NO)cc3CCN12` (single isomer, unassigned) [compound 157], the IC50 in data set [2] fell in the range of 0.001 to 0.1 µM; in data set [4], 10 to 100 µM; in data set [5] it was 0.1 to 1 µM; in data set [3] it was 1 to 10 µM.

For `C[C@@H]1CC[C@H]2c3c(F)cc(C(=O)NO)cc3CCN12` (single isomer, unassigned) [compound 158], the IC50 is 0.001 to 0.1 µM in data set [2], above 100 µM in data set [4], 0.1 to 1 µM in data set [5] and 1 to 10 µM in data set [3].

Consider `O=C(NO)c1ccc2c(c1)C[C@H]1COCC(=O)N1C2` (single isomer, unassigned) [compound 134], for which the half-maximal inhibitory concentration (IC50) in data set [2] was 0.001 to 0.1 µM; in data set [4], 10 to 100 µM; in data set [5], 10 to 100 µM; in data set [3], 1 to 10 µM.

In the case of `O=C(NO)c1cc(F)c2c(c1)CCN(C1CC3(COC3)C1)C2` [compound 111], the IC50 in data set [2] is 0.001 to 0.1 µM; in data set [2] (setting [10]) it was 0.001 to 0.1 µM; in data set [4] it was 10 to 100 µM; in data set [5] it was 10 to 100 µM; in data set [3] it was 10 to 100 µM; in data set [3] (setting [11]), 10 to 100 µM. Besides, the “Selectivity (6 v 8) (fold)” value in data set [2] (Table 1, number) is on record as 461.1 fold; in data set [2] (Table 1, range class) it was “IV (IV: >100-1000)”.

For the compound `O=C(NO)c1ccc(CN2CCC3(C2)C2CC4CC(C2)CC3C4)c(F)c1` (stereo not drawn) [compound 78], the 50% inhibitory concentration (IC50) in data set [2] was 1 to 10 µM; in data set [2] (setting [10]), 1 to 10 µM; in data set [4], above 100 µM; in data set [5], 10 to 100 µM; in data set [3], 0.1 to 1 µM; in data set [3] (setting [11]) it was 0.1 to 1 µM. Moreover, the “Selectivity (6 v 8) (fold)” value was 0.4 fold in data set [2] (Table 1, number) and “I (I: 0.1-1)” in data set [2] (Table 1, range class).

Take `O=C(NO)c1cc(F)c(CN2CCC3(CCCCC3)C2)cc1F` [compound 67]: the IC50 in data set [2] lay within 0.001 to 0.1 µM; in data set [2] (setting [10]), 0.001 to 0.1 µM; in data set [4], 10 to 100 µM; in data set [5], 1 to 10 µM; in data set [3], 1 to 10 µM; in data set [3] (setting [11]), 1 to 10 µM. For the same compound, the “Selectivity (6 v 8) (fold)” value is listed as 20 fold in data set [2] (Table 1, number) and “III (III: >10-100)” in data set [2] (Table 1, range class).

For the compound `O=C(NO)c1cc(F)c2c(c1)CCN(CC1CCCCC1)C2` [compound 19], the IC50 was in the range of 0.001 to 0.1 µM in data set [2]; 0.001 to 0.1 µM in data set [2] (setting [10]); 10 to 100 µM in data set [4]; 10 to 100 µM in data set [5]; 1 to 10 µM in data set [3]; 1 to 10 µM in data set [3] (setting [11]).

One may read the IC50 as the concentration needed to halve the response being measured.
